Results taken from patent publication US8513270B2, “Substituted heterocycles as Janus kinase inhibitors” (Incyte Corporation, priority 2006, dated 2013).
Where a name gives a salt, the structure may show the parent alone. Read-outs that look alike come from different tables or passages of the source.

Columns and labels:
[1] = biological target: T1, human JAK2 (a.a. 828-1132) (Homo sapiens, UniProt O60674); assay: In vitro JAK kinase assay (HTRF), JAK2; type: biochemical; settings: JAK2, 30 μM ATP; read-out: EXAMPLE A HTS-JAK2 HTRF-2 IC50
T1 construct: JAK2 (a.a. 828-1132); His tag (N); made in house; host or cells: insect cells (baculovirus)
T1 sequence (O60674 828-1132): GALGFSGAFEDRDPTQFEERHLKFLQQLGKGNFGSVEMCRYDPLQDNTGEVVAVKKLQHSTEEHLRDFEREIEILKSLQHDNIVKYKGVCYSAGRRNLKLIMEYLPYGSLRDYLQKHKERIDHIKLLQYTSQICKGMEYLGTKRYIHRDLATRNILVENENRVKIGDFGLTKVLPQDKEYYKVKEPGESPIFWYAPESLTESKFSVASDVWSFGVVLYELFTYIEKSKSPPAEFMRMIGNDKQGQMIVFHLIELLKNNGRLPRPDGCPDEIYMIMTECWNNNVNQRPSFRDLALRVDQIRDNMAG
Summary of the method: (§1)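 His-tagged catalytic domains from baculovirus-infected insect cells phosphorylated 500 nM biotinylated peptide in 50 mM Tris pH 7.8, 100 mM NaCl, 5 mM DTT, 0.01% BSA for 1 h at room temperature. ATP was 90 μM (JAK1), 30 μM (JAK2), 3 μM (JAK3). Detection used Eu-Py20/SA-APC; IC50s were derived.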

[2] = system: JAK2_INA61 (cancer cell line dependent on cytokines and JAK/STAT signal transduction); assay: Cellular assay: viability of cytokine-dependent cancer cell line (CellTiter-Glo); type: cell-based; settings: 72 hours, read-out: EXAMPLE B JAK2_INA61 IC50
Protocol: One or more compounds herein were tested for inhibitory activity of JAK targets according to at least one of the following cellular assays.
Compounds were added to the cells in DMSO/media (final concentration 0.2% DMSO) and incubated for 72 hours at 37° C., 5% CO2. The effect of compound on cell viability was assessed using the CellTiter-Glo Luminescent Cell Viability Assay (Promega) followed by TopCount (Perkin Elmer, Boston, Mass.) quantitation. Potential off-target effects of compounds were measured in parallel using a non-JAK driven cell line with the same assay readout. […] All experiments were performed in duplicate.

[3] = biological target: T2, human JAK1 (a.a. 837-1142) (Homo sapiens, UniProt P23458); assay: In vitro JAK kinase assay (HTRF), JAK1; type: biochemical; settings: JAK1, 90 μM ATP; read-out: EXAMPLE A JAK2-JAK1 HTRF-2 IC50
T2 construct: human JAK1 (a.a. 837-1142); His tag (N); made in house; host or cells: insect cells (baculovirus)
T2 sequence (P23458 849-1154): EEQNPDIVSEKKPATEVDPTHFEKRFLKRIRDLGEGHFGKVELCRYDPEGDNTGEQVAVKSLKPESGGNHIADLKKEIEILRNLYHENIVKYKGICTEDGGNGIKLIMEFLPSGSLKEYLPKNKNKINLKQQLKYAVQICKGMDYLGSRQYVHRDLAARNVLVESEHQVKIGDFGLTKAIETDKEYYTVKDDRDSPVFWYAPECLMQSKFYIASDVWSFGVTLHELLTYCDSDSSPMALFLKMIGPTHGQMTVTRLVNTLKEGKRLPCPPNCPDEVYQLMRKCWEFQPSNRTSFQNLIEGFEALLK
Summary of the method: as §1

[4] = biological target: T3, human JAK3 (a.a. 781-1124) (Homo sapiens, UniProt P52333); assay: In vitro JAK kinase assay (HTRF), JAK3; type: biochemical; settings: JAK3, 3 μM ATP; read-out: EXAMPLE A JAK2-JAK3 HTRF-2 IC50
T3 construct: JAK3 (a.a. 781-1124); His tag (N); made in house; host or cells: insect cells (baculovirus)
T3 sequence (P52333 781-1124): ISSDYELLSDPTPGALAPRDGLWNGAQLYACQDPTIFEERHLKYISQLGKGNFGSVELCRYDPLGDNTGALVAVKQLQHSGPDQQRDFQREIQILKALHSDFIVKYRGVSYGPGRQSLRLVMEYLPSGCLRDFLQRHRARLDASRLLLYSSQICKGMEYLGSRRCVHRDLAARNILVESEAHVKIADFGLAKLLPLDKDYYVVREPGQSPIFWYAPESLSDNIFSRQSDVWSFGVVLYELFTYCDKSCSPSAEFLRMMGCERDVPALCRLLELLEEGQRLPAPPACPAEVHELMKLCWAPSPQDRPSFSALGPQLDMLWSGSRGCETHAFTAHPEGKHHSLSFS
Summary of the method: as §1

TF1-BCRABL1 cells = TF1-BCRABL1 cells (Homo sapiens, UniProt P00519); assay: ABL1 cell based assay: viability of ABL1-dependent cell line (CellTiter-Glo)
Summary of the method: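 ABL1-dependent cells plated at 3000 per well in RPMI 1640 with 10% FBS and exposed to compounds for 72 h at 37° C, 5% CO2, 0.2% DMSO final. Viability read by CellTiter-Glo luminescence; duplicate or more.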

ABL1 kinase (wild-type) = biological target: T4, ABL1 kinase (wild-type) (Homo sapiens, UniProt P00519); assay: ABL1 HTRF assay (wild-type); type: biochemical; settings: 35 μM ATP; read-out: EXAMPLE G WT Abl IC50
T4 construct: The catalytic domains of ABL1 kinases (residues 27 to the C-termini) were N-terminal His tagged; His tag (N); purchased Upstate Cell Signaling Solutions; host or cells: insect cells (baculovirus)
Protocol: (§2) Compounds herein described were tested for inhibitory activity of ABL1 kinase (wild-type and T315I mutant) as described below. The catalytic domains of ABL1 kinases (residues 27 to the C-termini) were N-terminal His tagged and expressed by baculovirus in insect cells and purified. These were purchased in purified form from Upstate Cell Signaling Solutions. ABL1 and T315I ABL1 catalyze the phosphorylation of p28. The phosphorylated p28 is detected by Homogeneous Time Resolved Fluorescence (HTRF). IC50s of compounds were measured for each kinase in the reactions that contain: 1-2 nM ABL1 or T315I ABL1, 500 nM peptide, 35 μM ATP for ABL1 and 10 μM ATP for T315I ABL1, 2.0% DMSO in assay buffer containing 50 mM Tris, pH 7.8, 100 mM NaCl, 10 mM MgCl2, 5 mM DTT, 0.6 mg/mL BSA. Reactions proceed at room temperature for one and half hour and were stopped by adding, 20 μL additional 50 mM NaCl, 0.4 mg/mL BSA, 45 mM EDTA, 200 nM SA-APC, 4 nM Eu—Py20 in assay buffer. The plates were incubated at room temperature for 40 min and HTRF was then measured on a plate reader.

T315I ABL1 = biological target: T5, T315I ABL1 (Homo sapiens, UniProt P00519, T315I); assay: T315I ABL1 HTRF assay; type: biochemical; settings: 10 μM ATP; read-out: EXAMPLE G T315I Abl IC50
T5 construct: The catalytic domains of ABL1 kinases (residues 27 to the C-termini) were N-terminal His tagged; His tag (N); purchased Upstate Cell Signaling Solutions; host or cells: insect cells (baculovirus)
Protocol: as §2

[5] = 72 hours, cell viability, read-out: EXAMPLE F JAK2-TF1-BCRABL1 IC50
[6] = TF1_BCRABL cells, read-out: EXAMPLE H TF1_BCRABL IC50

| Compound | IC50 [1] [nM] | IC50 [2] [nM] | IC50 [3] [nM] | IC50 [4] [nM] | IC50 (ABL1 kinase (wild-type)) [nM] | IC50 (T315I ABL1) [nM] | GI50 (TF1-BCRABL1 cells; [5]) [nM] | GI50 (TF1-BCRABL1 cells; [6]) [nM] |
| --- | --- | --- | --- | --- | --- | --- | --- | --- |
| Cc1ccc(C(=O)Nc2cccc(C(F)(F)F)c2)cc1-c1ccc2c(c1)[nH]c1ncncc12 [Example 52, 4-methyl-3-(9H-pyrimido-[4,5-b]indol-7-yl)-N-[3-(trifluoromethyl)phenyl]benzamide] | ≤ 500 | 500 to 1000 | ≤ 500 | ≤ 500 | < 200 | < 190 | ≤ 500 | < 180 |
| Cc1ccc(NC(=O)c2cc(N3CCN(C)CC3)cc(C(F)(F)F)c2)cc1-c1ccc2c(c1)[nH]c1ncncc12 [Example 26, 3-(4-Methylpiperazin-1-yl)-N-[4-methyl-3-(9H-pyrimido[4,5-b]indol-7-yl)phenyl]-5-(trifluoromethyl)benzamide bis(trifluoroacetate)] | ≤ 500 |  | ≤ 500 | ≤ 500 | < 200 | < 190 | ≤ 500 | < 180 |
| O=C(Nc1cccc(C(F)(F)F)c1)c1ccc(Cl)c(-c2ccc3c(c2)[nH]c2ncncc23)c1 [Example 58, 4-chloro-3-(9H-pyrimido-[4,5-b]indol-7-yl)-N-[3-(trifluoromethyl)phenyl]-benzamide] | ≤ 500 | 500 to 1000 | ≤ 500 | ≤ 500 | < 200 | < 190 | ≤ 500 | < 180 |
| Cc1ccc(NC(=O)c2cccc(C(F)(F)F)c2)cc1-c1ccc2[nH]c3ncncc3c2c1 [Example 40, N-[4-Methyl-3-(9H-pyrimido[4,5-b]indol-6-yl)phenyl]-3-(trifluoromethyl)benzamide] | ≤ 500 | ≤ 500 | ≤ 500 | 500 to 1000 | < 200 | < 190 | ≤ 500 | < 180 |
| Cc1ccc(C(=O)N[C@@H](C)c2ccccc2)cc1-c1ccc2c(c1)[nH]c1ncncc12 [Example 64, 4-methyl-N-[(1S)-1-phenylethyl]-3-(9H-pyrimido[4,5-b]indol-7-yl)benzamide] | > 1000 | > 1000 | > 1000 | ≤ 500 |  |  | 500 to 1000 |  |
| O=C(Nc1ccc(F)c(-c2ccc3c(c2)[nH]c2ncncc23)c1)c1cccc(C(F)(F)F)c1 [Example 13, N-[4-fluoro-3-(9H-pyrimido-[4,5-b]indol-7-yl)phenyl]-3-(trifluoromethyl)benzamide] | ≤ 500 | ≤ 500 | ≤ 500 | ≤ 500 |  |  | ≤ 500 |  |
| Cc1ccc(C(=O)NCc2cc(F)ccc2F)cc1-c1ccc2c(c1)[nH]c1ncncc12 [Example 55, N-(2,5-difluorobenzyl)-4-methyl-3-(9H-pyrimido-[4,5-b]indol-7-yl)benzamide] | > 1000 | 500 to 1000 | > 1000 | ≤ 500 |  |  | 500 to 1000 |  |
| Cc1ncc(NC(=O)c2cccc(C(F)(F)F)c2)cc1-c1ccc2c(c1)[nH]c1ncncc12 [Example 70, N-[6-methyl-5-(9H-pyrimido[4,5-b]indol-7-yl)pyridin-3-yl]-3-(trifluoromethyl)benzamide] | ≤ 500 | 500 to 1000 | ≤ 500 | ≤ 500 |  |  | ≤ 500 |  |
| Cc1ccc(NC(=O)Nc2cccc(C(F)(F)F)c2)cc1-c1ccc2c(c1)[nH]c1ncncc12 [Example 47, N-[4-Methyl-3-(9H-pyrimido[4,5-b]indol-7-yl)phenyl]-N′-[3-(trifluoromethyl)-phenyl]urea] | 500 to 1000 | > 1000 | ≤ 500 | ≤ 500 |  |  | ≤ 500 |  |

More lines, main results first:

| IC50 [1] [nM] | IC50 [2] [nM] | IC50 [3] [nM] | IC50 [4] [nM] | IC50 (ABL1 kinase (wild-type)) [nM] | IC50 (T315I ABL1) [nM] | Compound | GI50 (TF1-BCRABL1 cells; [5]) [nM] | GI50 (TF1-BCRABL1 cells; [6]) [nM] |
| --- | --- | --- | --- | --- | --- | --- | --- | --- |
| ≤ 500 | 500 to 1000 | ≤ 500 | ≤ 500 | < 200 | < 190 | Cc1ccc(C(=O)Nc2cncc(C(F)(F)F)c2)cc1-c1ccc2c(c1)[nH]c1ncncc12 [Example 66, 4-Methyl-3-(9H-pyrimido[4,5-b]indol-7-yl)-N-[5-(trifluoromethyl)pyridin-3-yl]-benzamide] | ≤ 500 | < 180 |
| ≤ 500 | 500 to 1000 | ≤ 500 | ≤ 500 |  |  | Cc1cccc(NC(=O)c2ccc(C)c(-c3ccc4c(c3)[nH]c3ncncc34)c2)c1 [Example 53, 4-methyl-N-(3-methyl-phenyl)-3-(9H-pyrimido-[4,5-b]indol-7-yl)benzamide] | ≤ 500 |  |
| ≤ 500 | > 1000 | ≤ 500 | ≤ 500 |  |  | Cc1ccc(C(=O)Nc2cccc(C(F)(F)F)c2)cc1-c1ccc2c(c1)[nH]c1ncccc12 [Example 68, 4-Methyl-3-(9H-pyrido[2,3-b]indol-7-yl)-N-[3-(trifluoromethyl)phenyl]benzamide, trifluoroacetate salt] | ≤ 500 |  |
| > 1000 | > 1000 | > 1000 | 500 to 1000 |  |  | Cc1ccc(C(=O)N[C@H](C)c2ccccc2)cc1-c1ccc2c(c1)[nH]c1ncncc12 [Example 63, 4-methyl-N-[(1R)-1-phenylethyl]-3-(9H-pyrimido[4,5-b]indol-7-yl)benzamide] | 500 to 1000 |  |
